Active and inactive are the calls of the source. The calls are words filed in the database; no cut-off is given here.
What was measured:
Assay type in all cases: cell-based
[1] = biological target: Beta-2 adrenergic receptor (Rattus norvegicus) (UniProt P10608); experiment: Activation of beta-2 adrenergic receptor in rat L6 cells assessed as enhancement of 2-deoxyglucose uptake at 10 uM preincubated for 4 hrs followed by 2-deoxyglucose addition measured after 20 mins by fluorescence assay relative to control
[2] = biological target: Beta-2 adrenergic receptor (Rattus norvegicus) (UniProt P10608); experiment: Activation of beta-2 adrenergic receptor in rat L6 cells assessed as enhancement of 2-deoxyglucose uptake preincubated for 4 hrs followed by 2-deoxyglucose addition measured after 20 mins by fluorescence assay
[3] = biological target: Beta-2 adrenergic receptor (Rattus norvegicus) (UniProt P10608); experiment: Activation of beta-2 adrenergic receptor in rat L6 cells assessed as enhancement of 2-deoxyglucose uptake at 10 uM preincubated for 4 hrs followed by 2-deoxyglucose addition measured after 20 mins by fluorescence assay in presence of PI3K inhibitor LY294002
[4] = biological target: Beta-2 adrenergic receptor (Rattus norvegicus) (UniProt P10608); experiment: Activation of beta-2 adrenergic receptor in rat L6 cells assessed as enhancement of 2-deoxyglucose uptake at 10 uM preincubated for 4 hrs followed by 2-deoxyglucose addition measured after 20 mins by fluorescence assay in presence of AMPK inhibitor dorsomorphin
[5] = biological target: Beta-2 adrenergic receptor (Rattus norvegicus) (UniProt P10608); experiment: Activation of beta-2 adrenergic receptor in rat L6 cells assessed as enhancement of 2-deoxyglucose uptake at 10 uM preincubated for 4 hrs followed by 2-deoxyglucose addition measured after 20 mins by fluorescence assay in presence of non-selective beta-adrenergic receptor antagonist propranolol
[6] = biological target: Beta-2 adrenergic receptor (Rattus norvegicus) (UniProt P10608); experiment: Activation of beta-2 adrenergic receptor in rat L6 cells assessed as enhancement of 2-deoxyglucose uptake at 10 uM preincubated for 4 hrs followed by 2-deoxyglucose addition measured after 20 mins by fluorescence assay in presence of beta-2 selective adrenergic receptor antagonist ICI118551

Sequence of Beta-2 adrenergic receptor (Rattus norvegicus) (P10608 whole entry, looked up): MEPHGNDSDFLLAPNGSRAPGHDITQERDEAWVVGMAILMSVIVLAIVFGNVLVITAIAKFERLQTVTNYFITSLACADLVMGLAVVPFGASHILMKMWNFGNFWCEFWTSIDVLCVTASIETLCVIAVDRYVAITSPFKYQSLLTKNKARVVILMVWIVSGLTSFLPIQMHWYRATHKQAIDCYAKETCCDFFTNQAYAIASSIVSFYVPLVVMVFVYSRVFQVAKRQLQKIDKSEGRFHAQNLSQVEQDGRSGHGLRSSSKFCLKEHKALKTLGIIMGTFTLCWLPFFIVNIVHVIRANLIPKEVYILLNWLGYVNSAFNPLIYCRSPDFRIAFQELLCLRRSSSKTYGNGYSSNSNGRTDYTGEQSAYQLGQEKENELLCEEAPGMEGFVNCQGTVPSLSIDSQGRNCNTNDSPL

`OC[C@H]1O[C@@H](Oc2ccc(C[C@@H]3NCCc4cc(O)c(O)cc43)cc2)[C@H](O)[C@@H](O)[C@@H]1O` was tested, and the fold change (FC) [1] was 2.1, the Activity [2] was “Dose-dependent effect” and the Activity [3] was “Active”. The Activity [4] was “Active”, the Activity [5] was “inactive” and the Activity [6] was “inactive”.

Source: ChEMBL document CHEMBL3585333, “Higenamine 4'-O-β-d-glucoside in the lotus plumule induces glucose uptake of L6 cells through β2-adrenergic receptor” (Bioorg Med Chem, 2015)
